Test results taken from ChEMBL document CHEMBL1154397, “Synthesis and SAR of 4-substituted-2-aminopyrimidines as novel c-Jun N-terminal kinase (JNK) inhibitors” (Bioorg Med Chem Lett, 2009).

Columns and labels:
[1] = molecular target: c-Jun N-terminal kinase, JNK (Homo sapiens, UniProt P45983+P53779+P45984); assay: Inhibition of TNF-alpha-induced phosphorylation of […] in human HepG2 cells; assay type: cell-based
Liver microsomes = assay: Metabolic stability in human liver microsomes assessed as clearance; assay type: ADME, Microsome
[2] = Metabolic stability in rat liver microsomes assessed as clearance; assay type: ADME, Microsome
[3] = molecular target: Mitogen-activated protein kinase 8 (Homo sapiens, UniProt P45983); assay: Inhibition of JNK1
[4] = molecular target: Voltage-gated inwardly rectifying potassium channel KCNH2 (Homo sapiens, UniProt Q12809); assay: Binding affinity to human ERG
[5] = molecular target: Mitogen-activated protein kinase 9 (Homo sapiens, UniProt P45984); assay: Inhibition of to JNK2
[6] = molecular target: Mitogen-activated protein kinase 10 (Homo sapiens, UniProt P53779); assay: Inhibition of JNK3
[7] = molecular target: Cyclin-dependent kinase 2 (Homo sapiens, UniProt P24941); assay: Inhibition of CDK2/cyclinA
[8] = molecular target: Dual specificity mitogen-activated protein kinase kinase 7 (Homo sapiens, UniProt O14733); assay: Inhibition of MKK7beta
[9] = molecular target: Dual specificity mitogen-activated protein kinase kinase 4 (Homo sapiens, UniProt P45985); assay: Inhibition of MKK4
[10] = molecular target: Mitogen-activated protein kinase 13 (Homo sapiens, UniProt O15264); assay: Inhibition of SPAK4
[11] = molecular target: Glycogen synthase kinase-3 beta (Homo sapiens, UniProt P49841); assay: Inhibition of GSK3-beta
[12] = molecular target: Mitogen-activated protein kinase 12 (Homo sapiens, UniProt P53778); assay: Inhibition of SAPK3
[13] = molecular target: Inhibitor of nuclear factor kappa-B kinase subunit beta (Homo sapiens, UniProt O14920); assay: Inhibition of IKKb
[14] = molecular target: Dual specificity mitogen-activated protein kinase kinase 6 (Homo sapiens, UniProt P52564); assay: Inhibition of MKK6
[15] = molecular target: 5'-AMP-activated protein kinase catalytic subunit alpha-2 (Homo sapiens, UniProt P54646); assay: Inhibition of AMPK
Insulin receptor = Insulin receptor (Homo sapiens, UniProt P06213); assay: Inhibition of IR
[16] = molecular target: MAP kinase-activated protein kinase 2 (Homo sapiens, UniProt P49137); assay: Inhibition of MAPKAP-K2
[17] = molecular target: Dual specificity mitogen-activated protein kinase kinase 1 (Homo sapiens, UniProt Q02750); assay: Inhibition of MEK1
[18] = molecular target: Ribosomal protein S6 kinase beta-1 (Homo sapiens, UniProt P23443); assay: Inhibition of P70s6K
[19] = molecular target: Protein kinase C theta type (Homo sapiens, UniProt Q04759); assay: Inhibition of PKCtheta
[20] = molecular target: Mitogen-activated protein kinase 14 (Homo sapiens, UniProt Q16539); assay: Inhibition of SAPK2a
[21] = molecular target: Mitogen-activated protein kinase 11 (Homo sapiens) (UniProt Q15759); assay: Inhibition of SAPK2b
[22] = Permeability from apical to basolateral side of human Caco-2 cells; assay type: ADME, cell-based; details: read-out: permeability
[23] = Permeability from basolateral to apical side of human Caco-2 cells; assay type: ADME, cell-based; details: read-out: permeability
[24] = Lipophilicity, log D of the compound; assay type: physicochemical; details: octanol/water
[25] = Selectivity ratio of IC50 for p38MAPKbeta to IC50 for JNK1
[26] = Selectivity ratio of IC50 for p38MAPKgamma to IC50 for JNK1

Sequence of Mitogen-activated protein kinase 8 (P45983 whole entry): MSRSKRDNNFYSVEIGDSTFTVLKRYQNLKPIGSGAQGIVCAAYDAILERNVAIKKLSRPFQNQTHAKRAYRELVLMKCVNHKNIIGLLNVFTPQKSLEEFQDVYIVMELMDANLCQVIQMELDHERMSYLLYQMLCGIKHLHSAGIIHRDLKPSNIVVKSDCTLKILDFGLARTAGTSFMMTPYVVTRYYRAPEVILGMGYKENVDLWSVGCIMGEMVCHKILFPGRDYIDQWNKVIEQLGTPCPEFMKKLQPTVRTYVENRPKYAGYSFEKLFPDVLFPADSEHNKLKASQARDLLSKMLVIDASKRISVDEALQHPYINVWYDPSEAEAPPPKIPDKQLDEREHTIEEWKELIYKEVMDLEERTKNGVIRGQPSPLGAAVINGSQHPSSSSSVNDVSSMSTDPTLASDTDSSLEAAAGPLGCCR
Sequence of Mitogen-activated protein kinase 9 (P45984 whole entry): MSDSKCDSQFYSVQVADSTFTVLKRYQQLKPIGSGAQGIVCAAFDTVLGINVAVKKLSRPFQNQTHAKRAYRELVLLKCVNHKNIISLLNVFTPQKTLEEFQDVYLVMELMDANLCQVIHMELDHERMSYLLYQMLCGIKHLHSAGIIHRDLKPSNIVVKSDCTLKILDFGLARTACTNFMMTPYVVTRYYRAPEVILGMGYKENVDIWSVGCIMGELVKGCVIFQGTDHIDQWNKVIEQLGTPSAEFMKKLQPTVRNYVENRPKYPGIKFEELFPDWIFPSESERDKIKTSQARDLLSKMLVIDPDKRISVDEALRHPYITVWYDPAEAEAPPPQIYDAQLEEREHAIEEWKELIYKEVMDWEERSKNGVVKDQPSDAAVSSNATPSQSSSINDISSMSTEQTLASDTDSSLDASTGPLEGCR
Sequence of Mitogen-activated protein kinase 10 (P53779 whole entry): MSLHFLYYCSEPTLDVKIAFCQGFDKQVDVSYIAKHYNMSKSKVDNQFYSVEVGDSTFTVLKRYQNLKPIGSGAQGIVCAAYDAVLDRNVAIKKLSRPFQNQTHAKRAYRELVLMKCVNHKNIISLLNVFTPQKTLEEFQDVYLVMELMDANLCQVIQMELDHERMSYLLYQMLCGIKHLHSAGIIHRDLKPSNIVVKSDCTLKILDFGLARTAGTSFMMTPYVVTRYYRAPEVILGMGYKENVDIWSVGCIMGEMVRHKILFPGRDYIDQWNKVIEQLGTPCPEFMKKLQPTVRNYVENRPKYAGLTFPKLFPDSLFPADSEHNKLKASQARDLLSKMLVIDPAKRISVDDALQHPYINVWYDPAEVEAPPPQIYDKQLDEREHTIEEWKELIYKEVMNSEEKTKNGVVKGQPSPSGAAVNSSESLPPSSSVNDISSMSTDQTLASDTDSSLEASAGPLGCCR
Sequence of Insulin receptor (P06213 28-758 limits assumed): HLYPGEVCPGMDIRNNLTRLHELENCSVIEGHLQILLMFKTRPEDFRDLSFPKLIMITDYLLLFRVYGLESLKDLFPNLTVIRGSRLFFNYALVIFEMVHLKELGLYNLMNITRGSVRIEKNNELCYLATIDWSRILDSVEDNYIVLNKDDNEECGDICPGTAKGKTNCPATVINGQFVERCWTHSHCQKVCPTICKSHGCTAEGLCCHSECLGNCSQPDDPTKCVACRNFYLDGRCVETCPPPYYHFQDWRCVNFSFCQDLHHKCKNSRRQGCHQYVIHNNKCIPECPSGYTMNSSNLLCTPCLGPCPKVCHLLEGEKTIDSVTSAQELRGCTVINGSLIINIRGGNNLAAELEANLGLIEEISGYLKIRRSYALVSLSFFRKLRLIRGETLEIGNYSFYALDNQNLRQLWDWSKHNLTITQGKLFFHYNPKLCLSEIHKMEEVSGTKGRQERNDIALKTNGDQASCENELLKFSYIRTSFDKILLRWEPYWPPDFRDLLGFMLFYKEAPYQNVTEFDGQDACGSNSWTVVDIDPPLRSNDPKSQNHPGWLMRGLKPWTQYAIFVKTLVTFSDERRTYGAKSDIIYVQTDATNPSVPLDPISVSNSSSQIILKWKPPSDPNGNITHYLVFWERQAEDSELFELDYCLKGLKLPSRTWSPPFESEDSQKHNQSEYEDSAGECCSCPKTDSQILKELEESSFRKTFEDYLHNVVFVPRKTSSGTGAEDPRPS
Sequence of Insulin receptor (P06213 763-1382 limits assumed): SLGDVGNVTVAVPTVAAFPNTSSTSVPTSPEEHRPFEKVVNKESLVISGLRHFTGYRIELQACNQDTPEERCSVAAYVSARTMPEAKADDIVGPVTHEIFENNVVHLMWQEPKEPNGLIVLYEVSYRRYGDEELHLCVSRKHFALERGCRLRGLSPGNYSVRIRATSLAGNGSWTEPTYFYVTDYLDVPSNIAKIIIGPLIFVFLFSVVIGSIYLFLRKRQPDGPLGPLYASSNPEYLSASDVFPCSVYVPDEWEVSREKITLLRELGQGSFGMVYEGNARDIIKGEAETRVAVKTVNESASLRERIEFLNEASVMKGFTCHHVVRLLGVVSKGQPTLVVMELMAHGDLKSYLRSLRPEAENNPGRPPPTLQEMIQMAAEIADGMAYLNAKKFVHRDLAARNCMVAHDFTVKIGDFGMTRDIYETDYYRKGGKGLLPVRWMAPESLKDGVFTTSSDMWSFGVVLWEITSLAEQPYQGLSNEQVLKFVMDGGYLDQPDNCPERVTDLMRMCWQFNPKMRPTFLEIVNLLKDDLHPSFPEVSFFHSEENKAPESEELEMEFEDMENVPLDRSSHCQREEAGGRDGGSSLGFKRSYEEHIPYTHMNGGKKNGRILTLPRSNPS
Sequence of Dual specificity mitogen-activated protein kinase kinase 1 (Q02750 whole entry): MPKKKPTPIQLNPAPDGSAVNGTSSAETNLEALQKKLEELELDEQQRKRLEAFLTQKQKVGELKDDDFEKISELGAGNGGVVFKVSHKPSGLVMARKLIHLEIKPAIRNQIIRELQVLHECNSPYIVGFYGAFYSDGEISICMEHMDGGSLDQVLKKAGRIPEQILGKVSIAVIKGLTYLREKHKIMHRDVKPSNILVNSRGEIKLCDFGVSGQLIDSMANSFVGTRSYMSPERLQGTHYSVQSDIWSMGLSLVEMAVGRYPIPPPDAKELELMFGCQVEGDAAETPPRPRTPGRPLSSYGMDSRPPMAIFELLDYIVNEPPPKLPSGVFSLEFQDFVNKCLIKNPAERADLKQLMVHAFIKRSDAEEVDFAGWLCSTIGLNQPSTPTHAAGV
Sequence of 5'-AMP-activated protein kinase catalytic subunit alpha-2 (P54646 whole entry): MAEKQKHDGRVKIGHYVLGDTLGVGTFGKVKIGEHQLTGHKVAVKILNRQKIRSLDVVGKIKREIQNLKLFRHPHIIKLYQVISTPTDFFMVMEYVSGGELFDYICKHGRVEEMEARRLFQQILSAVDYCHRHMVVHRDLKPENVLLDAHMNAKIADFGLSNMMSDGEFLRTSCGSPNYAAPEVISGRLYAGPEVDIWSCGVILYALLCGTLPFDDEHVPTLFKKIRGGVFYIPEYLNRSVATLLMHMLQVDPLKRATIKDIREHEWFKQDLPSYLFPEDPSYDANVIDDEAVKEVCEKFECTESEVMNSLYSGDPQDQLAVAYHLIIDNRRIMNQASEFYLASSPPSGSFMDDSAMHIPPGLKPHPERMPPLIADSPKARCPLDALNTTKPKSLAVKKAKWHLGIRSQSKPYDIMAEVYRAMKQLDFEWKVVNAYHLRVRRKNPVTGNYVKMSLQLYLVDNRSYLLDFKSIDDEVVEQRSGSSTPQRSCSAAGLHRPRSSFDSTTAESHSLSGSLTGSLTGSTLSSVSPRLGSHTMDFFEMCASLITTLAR
Sequence of Glycogen synthase kinase-3 beta (P49841 whole entry): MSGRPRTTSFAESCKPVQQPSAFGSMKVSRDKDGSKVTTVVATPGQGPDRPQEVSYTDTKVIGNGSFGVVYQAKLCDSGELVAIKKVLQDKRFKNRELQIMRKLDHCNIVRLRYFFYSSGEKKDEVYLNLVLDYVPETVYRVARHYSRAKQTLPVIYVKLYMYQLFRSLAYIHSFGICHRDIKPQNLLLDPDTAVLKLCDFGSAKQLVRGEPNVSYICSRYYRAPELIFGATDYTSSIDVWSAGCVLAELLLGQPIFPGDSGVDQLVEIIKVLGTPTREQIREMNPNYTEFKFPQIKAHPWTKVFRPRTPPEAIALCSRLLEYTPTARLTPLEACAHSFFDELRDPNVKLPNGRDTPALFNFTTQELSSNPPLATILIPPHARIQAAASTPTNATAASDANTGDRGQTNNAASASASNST
Sequence of Inhibitor of nuclear factor kappa-B kinase subunit beta (O14920 whole entry): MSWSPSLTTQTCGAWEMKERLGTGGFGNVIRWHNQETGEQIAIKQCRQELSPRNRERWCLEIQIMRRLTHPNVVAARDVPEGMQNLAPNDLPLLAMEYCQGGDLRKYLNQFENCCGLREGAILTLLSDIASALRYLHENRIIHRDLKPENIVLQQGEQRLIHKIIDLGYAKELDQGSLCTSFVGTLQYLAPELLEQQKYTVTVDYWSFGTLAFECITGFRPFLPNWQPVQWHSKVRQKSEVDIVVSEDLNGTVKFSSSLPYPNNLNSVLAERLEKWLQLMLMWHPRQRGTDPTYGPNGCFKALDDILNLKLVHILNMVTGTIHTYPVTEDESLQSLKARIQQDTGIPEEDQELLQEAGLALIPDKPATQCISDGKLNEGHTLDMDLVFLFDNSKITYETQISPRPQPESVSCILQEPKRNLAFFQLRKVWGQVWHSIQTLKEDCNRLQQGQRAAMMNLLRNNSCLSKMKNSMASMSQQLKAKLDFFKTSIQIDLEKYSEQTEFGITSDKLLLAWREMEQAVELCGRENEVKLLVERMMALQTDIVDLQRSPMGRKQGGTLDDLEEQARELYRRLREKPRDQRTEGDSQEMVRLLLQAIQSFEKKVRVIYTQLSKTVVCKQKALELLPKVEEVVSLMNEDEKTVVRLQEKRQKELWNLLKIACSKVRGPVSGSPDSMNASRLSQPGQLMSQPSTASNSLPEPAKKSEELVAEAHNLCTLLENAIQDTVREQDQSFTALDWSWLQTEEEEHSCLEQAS

Compound | IC50 [1] [nM] | microsomal CLint (Liver microsomes) [µL/min/mg] | Ki [3] [nM] | further results
CC(C)Nc1nccc(-c2c[nH]nc2C2CCCOC2)n1 (configuration not stated) | 357 | 34 | 43 | microsomal CLint [2]: 18 µL/min/mg
CN1CCC(Nc2nccc(-c3c[nH]nc3-c3ccc(Cl)cc3)n2)CC1 |  | 14 | 1570 | Ki [4]: 1020 nM
CC(C)Nc1nccc(-c2cn[nH]c2C2CCN(S(C)(=O)=O)CC2)n1 | 221 | 12 | 101 | microsomal CLint [2]: 52 µL/min/mg
O[C@H]1CC[C@H](c2[nH]ncc2-c2ccnc(NC3CCCC3)n2)CC1 |  | < 15 | 12 | Ki [5]: 17 nM; Ki [6]: 16 nM; IC50 [7]: 590 nM; IC50 [8]: 860 nM; IC50 [9]: 920 nM; IC50 [10]: 1200 nM; IC50 [11]: 1900 nM; IC50 [12]: 6200 nM; IC50 [13]: 13000 nM; IC50 [14]: 15000 nM; IC50 [15]: > 30000 nM; IC50 (Insulin receptor): > 30000 nM; IC50 [16]: > 30000 nM; IC50 [17]: > 30000 nM; IC50 [18]: > 30000 nM; IC50 [19]: > 30000 nM; IC50 [20]: > 30000 nM; IC50 [21]: 15000 nM
Cc1ccc(-c2n[nH]cc2-c2ccnc(NC3CCN(C)CC3)n2)cn1 | 6020 | 61 | 162 | 
Clc1ccc(-c2n[nH]cc2-c2ccnc(NC3CC3)n2)cc1 | 840 | 96 | 151 | 
Clc1ccc(-c2n[nH]cc2-c2ccnc(NC3CCCCC3)n2)cc1 | 1100 | 156 | 27 | 
Cc1ccnc(S)n1 |  |  | 2060 | 
CC(C)Nc1nccc(-c2cn[nH]c2C2CCCCO2)n1 (configuration not stated) | 3500 | 21 | 381 | 
CC(C)Nc1nccc(-c2c[nH]nc2C2CCOCC2)n1 | 814 | 18 | 169 | 
CC(C)Nc1nccc(-c2c[nH]nc2-c2ccc(Cl)cc2)n1 | 920 | 106 | 48 | 
CS(=O)(=O)N[C@H]1CC[C@H](c2n[nH]cc2-c2ccnc(NC3CCCC3)n2)CC1 | 114 | 11 | 9 | 
C[C@H](CC(=O)O)Nc1nccc(-c2c[nH]nc2-c2ccc(Cl)cc2)n1 |  | < 6 | 315 | Papp A→B [22]: 0.3 ×10⁻⁶ cm/s; Papp B→A [23]: 13.2 ×10⁻⁶ cm/s
Clc1ccc(-c2n[nH]cc2-c2ccnc(NC3CCCC3)n2)cc1 | 460 | 116 | 26 | logD [24]: 4.42
OC1CCCC(c2n[nH]cc2-c2ccnc(NC3CCCC3)n2)C1 (configuration not stated) | 209 | 15 | 36 | 
c1cc(-c2cn[nH]c2C2CCCOC2)nc(NC2CCCC2)n1 (configuration not stated) | 245 | 89 | 12 | 
CC(C)Nc1nccc(-c2cn[nH]c2C2CCCNC2)n1 (configuration not stated) |  | 14 | 530 | 
CC(C)Nc1nccc(-c2cn[nH]c2)n1 |  | 21 | 2730 | 
CC(=O)N[C@H]1CC[C@H](c2n[nH]cc2-c2ccnc(NC3CCCC3)n2)CC1 | 299 | < 8 | 28 | 
O[C@H]1CC[C@H](c2n[nH]cc2-c2ccnc(NC3CCCC3)n2)CC1 | 98 |  |  | Activity [25]: 100; Activity [26]: 100
